Patent US8029768B2, “Treatment of respiratory diseases” (Sosei R&D Ltd., priority 2000, dated 2011)

Key:
[1] = about 1 mg sample on sinter, 195 ml water reservoir, FIG. 1
Procedure: A 195 ml reservoir was used in the dissolution test. The reservoir was filled with water and contained a sampling inlet port and a sampling outlet port. A sintered disk of approximately 50 mm diameter and 3 mm depth was placed in an opening on top of the reservoir, in contact with the water. A known mass (about 1 mg) of the sample to be tested was dropped onto the sinter and a timer started. At various times, 1 ml samples were removed from the reservoir and immediately replaced with 1 ml of water to maintain the volume in the system. The samples were analysed in a Cecil Aquarius CE7200 ultraviolet spectrophotometer at a wavelength of 200 nm. The concentration of the samples was calculated with a previously prepared calibration graph and the concentration versus time was plotted.

asthma = details: inhaled, Walker et al. 1987; cited from earlier work

- time at which the maximum concentration is achieved [1]: 10 min
- concentration of glycopyrrolate in the reservoir at 5 minutes ([1]; first time point 5 minutes): greater than 10 mg/l
SMILES: C[N+]1(C)CCC(OC(=O)C(O)(c2ccccc2)C2CCCC2)C1 (stereo not shown) [glycopyrrolate]
- duration of effective treatment (asthma): up to 12 hours
- duration of effective treatment that appears to be maximal (asthma): up to 8 hours
